Experimental data reported in patent US20250179057A1, “MEK IMMUNE ONCOLOGY INHIBITORS AND THERAPEUTIC USES THEREOF” (Immuneering Corporation, priority 2022, published 2025).
Where “and” joins values, the source holds several entries; their conditions need not be identical. Equal entries are not always repeated.

Tests used:
[1] = tested on: phospho-ERK in A549 (KRAS G12S) cells; test: Cell-based pERK (pERK:tERK) in A549 cells; set-up: A549-pERK 10 uM, 2 h: unit not given here; conditions: for A549-pERK (10 nM, 2 h): phospho- to total protein ratio normalized to DMSO control (Table 9); for A549-pERK 10 uM, 2 h: phospho- to total protein ratio normalized to DMSO control; for pERK:tERK (10 nM 2 h A549): Phospho-ERK Screen in A549 (KRAS G12S), head 10 nM 2 h, title 10 μM for 2 hours
Protocol: Media components, reagents and buffers for Western Blot: All cell culture media components were obtained from ThermoFisher Scientific. […] Laemmli sample loading 4× buffer (ThermoFisher Scientific, Cat No. NP0007). MOPS/SDS electrophoresis running buffer (GenScript, Cat No. M00138).
Subculture conditions: Adherent cells were grown to approximately 90% confluency, culture medium was aspirated and the cell layer was rinsed with PBS. […] Eight mL media was added, cells were spun down at 1000×g for 5 minutes. Cell pellet was re-suspended in 10 mL media and an appropriate volume was inoculated into a new culture flask.
Compound (drug) treatment: Cells were plated in a 6-well plate at a density of 250,000-300,000 cells/well in 3 mL media and incubated 37° C. in a humidified, 5% CO2 incubator. […] These solutions were added to the cells (3 uL/well), mixed by swirling the plate, and incubated at 37° C. in a humidified, 5% CO2 incubator for 2 hours.
Cell lysis and protein estimation: Cells were washed with PBS, and scraped in 50 μL of lysis buffer containing protease and phosphatase inhibitors. Cell lysates were stored at −20° C. Cell lysates were thawed and spun at 12,000 rpm for one minute, 3 ul of the supernatant was added to 500 μL of Coomassie blue reagent following by 500 μL of water. […] Protein standards were used (0-20 mg/mL) to calculate protein concentrations of test samples.
All samples were heated at 95° C. for 5 minutes, cooled to room temperature and spun down. […] After the run, gel was removed and protein transfer was done using iBlot for 7 minutes, as per manufacturer's recommendations. After the transfer, nitrocellulose membrane was incubated on a shaker in 5 mL of blocking buffer at room temperature for 1 hr. The blot was then incubated overnight on a shaker in 5 ml of blocking buffer containing 0.2% Tween-20 and primary antibody, at room temperature. Anti-phospho-STAT3 antibody was used at a dilution of 1:500, the other 3 primary antibodies were used at a dilution of 1:1000.
Next day, the blot was washed 3 times for 10 min each with 10 mL of TBST followed by incubation on a shaker in 5 ml of blocking buffer containing 0.2% Tween-20 and 0.5 ul of the IRDye labeled secondary antibodies, diluted 1:10000, at room temperature for 1 hr. The blot was then washed 3 times for 10 min each with 10 mL of TBST and dried between sheets of paper towels. Imaging was done using LICOR's Odyssey imaging system, quantitation was done using their software, Image Studio version 3.1.
(§1) Materials and Methods: A549 or A375 cells were seeded in 6-well plates at an appropriate seeding density on day 0. On day 2 or 3, after checking the health and confluency of cells, the media was aspirated and replaced with 1 mL media containing a predetermined concentration of compound and incubated for 2 hours. After 2 hours, the media was aspirated, and the cells washed 2 times with cold PBS. Cells were lysed on ice, with 50 uL 1×CST lysis buffer +1 mM PMSF for 5 minutes. After 5 minutes, cells were removed using a scraper and transferred to cold 1.5 mL tubes, and centrifuged for 10 min, 4° C., 14,000×g. Supernatant was gently removed and snap frozen in liquid nitrogen. Protein concentration of the lysate was determined using Bradford Reagent (analyzed using SpectraMax M2E) and diluted to 1 mg/mL or pERK or 1.5 mg/mL for pMEK analysis. […] All dilutions were in Milk-free antibody diluent.
They were grown in T75 flasks in DMEM containing 10% FBS and Pen-Strep. at 37° C. in a humidified, 5% CO2 incubator. The adherent cells were grown to about 90% confluency, culture medium was aspirated, and the cell layer was rinsed with PBS. […] Eight mL media was added, cells were spun down at 1000 g for 5 minutes. Cell pellet was re-suspended in 10 mL media and an appropriate volume was inoculated into a new culture flask. Cells were plated in a 6-well plate at a density of 250,000-300,000 cells/well in 3 mL media and incubated 37° C. in a humidified, 5% CO2 incubator.

[2] = tested on: phospho-MEK in A549 cells; test: Cell-based pMEK (pMEK:tMEK, CRAF bypass) in A549 cells; conditions: 2 h, pMEK to total MEK normalized to DMSO control
Protocol: as §1
(§2) A549 or […] cells were treated in duplicate for two hours with compounds at varying concentrations. After two hours, the cells were lysed, snap frozen, and stored at −80° C. After storage, the lysate was quantified with the Bradford assay. Before the lysates were prepared to run on the Jess, the lysates were diluted to 1 mg/mL for pERK analysis and 1.5 mg/mL pMEK analysis using quantitative Western blotting. ERK and MEK phosphorylation levels were estimated by taking the ratio of phospho-protein to total protein and normalizing to the DMSO control.
as §2

Row | Structure (SMILES) | A549-pERK (10 nM, 2 h) [1] | A549-CRAF BP 100 nM, 2 h [2] | A549-pERK 10 uM, 2 h [1] | pERK:tERK (10 nM 2 h A549) [1]
1 | CNS(=O)(=O)Nc1cccc(Cc2c(CNc3ccsc3)c3ccc(OC(=O)N(C)C)cc3oc2=O)c1F [Compound 90] | 72.4 | 71 |  | 
2 | CNS(=O)(=O)Nc1nccc(Cc2c(CN(C)C)c3cc(F)c(OC(=O)N(C)C)cc3oc2=O)c1F [Compound 140] | 65.0 | 70.3 |  | 
3 | C#CCNCCc1c(Cc2cccc(NS(=O)(=O)NC)c2F)c(=O)oc2cc(OC(=O)N(C)C)ccc12 [Compound 183] | 32.4 | 65.9 (mean, n = 2) | 0.82 | 
4 | CNS(=O)(=O)Nc1cccc(Cc2c(CNc3cncs3)c3ccc(OC(=O)N(C)C)cc3oc2=O)c1F [Compound 91] | 74.6 | 84.2 |  | 
5 | CN(C)C(=O)Oc1ccc2c(CN3CCNCC3)c(Cc3ccnc(NS(=O)(=O)C4CC4)c3F)c(=O)oc2c1 [Compound 150] | 47.4 | 90.2 |  | 
6 | CCS(=O)(=O)Nc1nccc(Cc2c(CN(C)C)c3ccc(OC(=O)N(C)C)cc3oc2=O)c1F [Compound 148] | 49.6 | 56.5 |  | 
7 | CNS(=O)(=O)Nc1cccc(Cc2c(CN3CC4(CCC4)C3)c3ccc(OC(=O)N(C)C)cc3oc2=O)c1F [Compound 153] | 50.2 | 54.1 |  | 
8 | CCS(=O)(=O)Nc1cccc(Cc2c(C)c3ccc(OC(=O)N(C)C)cc3oc2=O)c1F [Compound 107] | 18.0 | 39.9 |  | 
9 | CNS(=O)(=O)Nc1cccc(Cc2c(CN(C)Cc3ccccc3)c3ccc(OC(=O)N(C)C)cc3oc2=O)c1F [Compound 80] | 56.4 | 56.1 |  | 
10 | CNS(=O)(=O)Nc1cccc(Cc2c(CNCC#N)c3ccc(OC(=O)N(C)C)cc3oc2=O)c1F [Compound 33] | 55.4 | 51.4 |  | 
11 | Cc1c(Cc2cccc(NS(=O)(=O)C(C)C)c2F)c(=O)oc2cc(OC(=O)N(C)C)ccc12 [Compound 115] | 13.5 | 39.2 (mean, n = 2) |  | 
12 | CNS(=O)(=O)Nc1cccc(Cc2c(CN(C)CC3CC3)c3ccc(OC(=O)N(C)C)cc3oc2=O)c1F [Compound 84] | 83.2 | 87.3 |  | 
13 | CNS(=O)(=O)Nc1cccc(Cc2c(CN(C)CC3CCC3)c3ccc(OC(=O)N(C)C)cc3oc2=O)c1F [Compound 88] | 142 | 53.6 |  | 
14 | CNS(=O)(=O)Nc1cccc(Cc2c(CN(C)CC#N)c3ccc(OC(=O)N(C)C)cc3oc2=O)c1F [Compound 87] | 63.8 | 95.8 |  | 
15 | CNS(=O)(=O)Nc1cccc(Cc2c(CN3CC(C#N)C3)c3ccc(OC(=O)N(C)C)cc3oc2=O)c1F [Compound 172] | 111 |  |  | 
16 | CNS(=O)(=O)Nc1cccc(Cc2c(CN(C)C)c3ccc(OC(=O)N4CCN(C)CC4)cc3oc2=O)c1F [Compound 127] | 110 |  |  | 
17 | CNS(=O)(=O)Nc1cccc(Cc2c(CCNCC3CC3)c3ccc(OC(=O)N(C)C)cc3oc2=O)c1F [Compound 186] | 80.1 |  | 0.74 | 
18 | CNS(=O)(=O)Nc1cccc(Cc2c(CNCC3CC3)c3ccc(OC(=O)N(C)C)cc3oc2=O)c1F [Compound 26] | 94.2 |  |  | 
19 | CNS(=O)(=O)Nc1cccc(Cc2c(CC(=O)N(C)C)c3ccc(OC(=O)N(C)C)cc3oc2=O)c1F [Compound 196] | 106 |  |  | 

Row | Structure (SMILES) | A549-pERK (10 nM, 2 h) [1] | A549-CRAF BP 100 nM, 2 h [2] | A549-pERK 10 uM, 2 h [1] | pERK:tERK (10 nM 2 h A549) [1]
20 | CC(C)CS(=O)(=O)Nc1cccc(Cc2c(CN3CCNCC3)c3cc(Cl)c(OC(=O)N(C)C)cc3oc2=O)c1F [Compound 168] |  |  |  | 50 (n = 2) and 53 (n = 2)
21 | CNS(=O)(=O)Nc1nccc(Cc2c(CN3CC(F)(F)C3)c3ccc(OC(=O)N(C)C)cc3oc2=O)c1F [Compound 149] | 69.1 |  |  | 
22 | CNS(=O)(=O)Nc1cccc(Cc2c(CNCC(F)(F)F)c3ccc(OC(=O)N(C)C)cc3oc2=O)c1F [Compound 75] |  | 66.5 |  | 
23 | CNS(=O)(=O)Nc1cccc(Cc2c(CN3CC(Cl)C3)c3ccc(OC(=O)N(C)C)cc3oc2=O)c1F [Compound 145] | 104 |  |  | 
24 | CNS(=O)(=O)Nc1cccc(Cc2c(CN3CC(C)C3)c3ccc(OC(=O)N(C)C)cc3oc2=O)c1F [Compound 142] | 94.6 |  |  | 
25 | CNS(=O)(=O)Nc1cccc(Cc2c(CNc3ccn(C)n3)c3ccc(OC(=O)N(C)C)cc3oc2=O)c1F [Compound 89] | 83.7 |  |  | 
26 | CNS(=O)(=O)Nc1cccc(Cc2c(CO)c3ccc(OC(=O)N(C)C)cc3oc2=O)c1F [Compound 180] | 75 |  |  | 
27 | C#CCNC(=O)CNCc1c(Cc2cccc(NS(=O)(=O)NC)c2F)c(=O)oc2cc(OC(=O)N(C)C)ccc12 [Compound 218] | 113 |  | 9.46 | 
28 | CNS(=O)(=O)Nc1cccc(Cc2c(CNCc3cccc(C(F)(F)F)c3)c3ccc(OC(=O)N(C)C)cc3oc2=O)c1F [Compound 59] | 105 |  |  | 
29 | C#CCN(C)Cc1c(Cc2cccc(NS(=O)(=O)NC)c2F)c(=O)oc2cc(OC(=O)N(C)C)ccc12 [Compound 76] | 62.1 |  |  | 
30 | CCN(C)Cc1c(Cc2cccc(NS(=O)(=O)NC)c2F)c(=O)oc2cc(OC(=O)N(C)C)c(F)cc12 [Compound 261, 4-((ethyl(methyl)amino)methyl)-6-fluoro-3-(2-fluoro-3-((N-methylsulfamoyl)amino)benzyl)-2-oxo-2H-chromen-7-yl dimethylcarbamate] |  |  |  | 68
31 | CNS(=O)(=O)Nc1cccc(Cc2c(CNC(=O)c3c[nH]nn3)c3ccc(OC(=O)N(C)C)cc3oc2=O)c1F [Compound 211] | 121 |  | 70.75 | 
32 | CNS(=O)(=O)Nc1cccc(Cc2c(CC(=O)Nc3ccon3)c3ccc(OC(=O)N(C)C)cc3oc2=O)c1F [Compound 201] | 119 |  |  | 
33 | CNS(=O)(=O)Nc1cccc(Cc2c(CN(C)C)c3ccc(Oc4ncccn4)cc3oc2=O)c1F [Compound 129] | 92.2 |  |  | 
34 | CNS(=O)(=O)Nc1cccc(Cc2c(CNCC(=O)Nc3ccccc3)c3ccc(OC(=O)N(C)C)cc3oc2=O)c1F [Compound 223] | 119 |  | 3.04 | 
35 | CNC1CN(Cc2c(Cc3cccc(NS(=O)(=O)NC)c3F)c(=O)oc3cc(OC(=O)N(C)C)ccc23)C1 [Compound 164] | 102 |  |  | 
36 | CNS(=O)(=O)Nc1cccc(Cc2c(CNC(N)=O)c3ccc(OC(=O)N(C)C)cc3oc2=O)c1F [Compound 105] |  |  | 7.39 | 
37 | CNS(=O)(=O)Nc1cccc(Cc2c(CNc3ccccc3)c3ccc(OC(=O)N(C)C)cc3oc2=O)c1F [Compound 30] | 54.3 |  |  | 
38 | CNS(=O)(=O)Nc1cccc(Cc2c(CNc3nccs3)c3ccc(OC(=O)N(C)C)cc3oc2=O)c1F [Compound 94] | 93.5 |  |  | 
